Assay results taken from US12190997B2, “Genetically altered LysM receptors with altered agonist specificity and affinity” (Aarhus Universitet, priority 2018, dated 2025).

Key:
[1] = molecular target: T1, NFP L147D/L154D mutant (Medicago truncatula, UniProt Q0GXS4, L147D/L154D); experiment: BLI binding of NFP L147D/L154D mutant ectodomain to S. meliloti LCO-IV
T1 construct: The Medicago truncatula NFP ectodomain (residues 28-246) was codon-optimized; AcMNPV gp67 signal peptide (replaces native residues 1-27) (N, cleaved yes); made in house; host or cells: Sf9 insect cells (Spodoptera frugiperda), baculovirus, secreted into the medium
Excerpt: Creation of NFP point mutations: The NFP leucine residues L147 and L154 were replaced with aspartate residues. Aspartate is similar in size to leucine, but negatively charged where leucine is hydrophobic. Point mutants of NFP were engineered using site-directed mutagenesis. In particular, a double-mutated NFP was engineered where the leucine residues L147 and L154 were replaced with aspartate residues to create the mutant NFP L147D L154D. Point mutated versions of NFP were expressed and purified as described in Example 1.
NFP mutant binding assays: The binding assay using NFP wild type (WT) protein was replicated seven times, while the binding assay using the NFP mutant NFP L147D L154D was replicated four times.
Biolayer interferometry (BLI): Binding of NFP WT and NFP L147D/L154D mutant to S. meliloti LCO-IV was measured on an Octet RED 96 system (Pall ForteBio). S. meliloti LCO consists of a tetrameric/pentameric N-acetylglucosamine backbone that is O-sulfated on the reducing terminal residue, O-acetylated on the non-reducing terminal residue, and mono-N-acylated by unsaturated C16 acyl groups. Biotinylated ligand conjugates were immobilized on streptavidin biosensors (kinetic quality, Pall ForteBio) at a concentration of 125-250 nM for 5 minutes. The binding assays were replicated 7 times for the NFP WT, and 4 times for the NFP L147D/L154D mutant. Data analysis was performed in GraphPad Prism 6 software (GraphPad Software, Inc.). Equilibrium dissociation constants derived from the steady-state were determined by applying a non-linear regression (one site, specific binding) to the response at equilibrium plotted against the protein concentration. Kinetic parameters were determined by non-linear regression (association followed by dissociation) on the subtracted data. Binding of A. thaliana CERK1 (AtCERK1) to chitopentaose (CO5) and chitooctaose (CO8) was measured in the same way.

[2] = system: L. japonicus nfr1-1 mutant roots; experiment: Nodulation complementation of L. japonicus nfr1-1 mutants with LjNFR1/MtLYK3 chimeras, M. loti R7A; type: in vivo, Lotus japonicus; settings: 35 days post inoculation with M. loti R7A
Excerpt: Complementation assay: Construct assembly, plant growth conditions, hairy root transformations, nodulation and ROS assays were generally conducted as described in Bozsoki et al. (2017) (Bozsoki Z, Cheng J, Feng F, Gysel K, Vinther M, Andersen K R, Oldroyd G, Blaise M, Radutoiu S, Stougaard J (2017) Receptor-mediated chitin perception in legume roots is functionally separable from Nod factor perception. Proc Natl Acad Sci 114: E8118-E8127). A general schematic of the construct is provided in FIG. 3, whereby the pNFR1 promoter was used to drive the chimeric constructs. The tested chimeric receptors in Lotus are depicted as block diagrams below the graph in FIG. 7, where NFR1 domains are shown in white and LYK3 domains are shown in grey, and transverse lines across the block depicting the LysM1 domain indicate sections II and IV. […] Nodules were counted on hairy root transformed L. japonicus nfr1-1 mutant roots 35 days post inoculation with M. loti R7Å. M. loti R7A is the cognate N-fixing bacterial strain for L. japonicus, and is not recognized by M. truncatula.

[3] = system: Medicago nfp mutants; experiment: Complementation (nodulation) of Medicago nfp mutants, inoculation with S. meliloti strain 2011; type: in vivo, Medicago truncatula; settings: 6-7 weeks after inoculation with S. meliloti strain 2011, hairy root transformation
Excerpt: (§1) Complementation assay: Construct assembly, plant growth conditions, hairy root transformations, nodulation and ROS assays were generally conducted as described in Bozsoki et al. (2017) (Bozsoki Z, Cheng J, Feng F, Gysel K, Vinther M, Andersen K R, Oldroyd G, Blaise M, Radutoiu S, Stougaard J (2017) Receptor-mediated chitin perception in legume roots is functionally separable from Nod factor perception. Proc Natl Acad Sci 114: E8118-E8127). The tested transgenes were the mutated LysM receptors described in Example 2.

[4] = system: Medicago nfp mutants; experiment: Complementation (nodulation) of Medicago nfp mutants, inoculation with S. medicae; type: in vivo, Medicago truncatula
Excerpt: as §1
These complementation experiments were repeated using S. medicae inoculation, which has been reported to nodulate Medicago with higher efficiency. The results shown in FIG. 4B are complementation tests where the plants were inoculated with S. medicae.

CCCCCC/C=C\CCCCC/C=C/C(=O)N[C@H]1[C@H](O[C@H]2[C@H](O)[C@@H](NC(C)=O)[C@H](O[C@H]3[C@H](O)[C@@H](NC(C)=O)[C@H](O[C@H]4[C@H](O)[C@@H](NC(C)=O)C(O)O[C@@H]4COS(=O)(=O)O)O[C@@H]3CO)O[C@@H]2CO)O[C@H](COC(C)=O)[C@@H](O)[C@@H]1O (some centres unmarked) [S. meliloti LCO-IV]
association rate (kon) faster compared to WT NFP-ECD ([1]; FIGS. 19A-19C): 4.5 fold | dissociation rate (koff) increased compared to WT NFP-ECD ([1]; FIGS. 19A-19C): 59 fold | Kd ([1]; S. meliloti LCO-IV, FIG. 2B): 48 ± 1 µM | Kd ([1]; purified L147D/L154D NFP-ECD, FIGS. 19A-19C): 167 ± 4.2 µM | affinity compared with NFP WT ([1]; S. meliloti LCO-IV, FIG. 2B): approximately two times lower affinity | association (Kon) compared with NFP WT ([1]; S. meliloti LCO-IV, FIG. 2B): almost unaffected | dissociation (Koff) faster than NFP WT ([1]; S. meliloti LCO-IV, FIG. 2B): approximately 15 times

B1: LjCERK6: unaltered Lotus CERK6 chitin receptor protein (SEQ ID NO:34), negative control (protein)
chain: MEHPRLGFPITLLLFSFILLPSTSQSKCTHGCALAQASYYLLNGSNLTYISEIMQSSLLTKPEDIVSYNQDTIASKDSVQAGQRINVPFPCDCIEGEFLGHTFQYDVQKGDRYDTIAGTNYANLTTVEWLRRFNSYPPDNIPDTGTLNVTVNCSCGDSGVGDYGLFVTYPLRPGETLGSVASNVKLDSALLQKYNPNVNFNQGSGIVYIPAKDQNGSYVLLGSSSGGLAGGAIAGIAAGVAVCLLLLAGFIYVGYFRKKRIQKEELLSQETRAIFPQDGKDENPRSTVNETPGPGGPAAMAGITVDKSVEFSYDELATATDNFSLANKIGQGGFGSVYYAELRGERAAIKKMDMQASKEFLAELKVLTRVHHLNLVRLIGYSIEGSLFLVYEFIENGNLSQHLRGSGRDPLPWATRVQIALDSARGLEYIHEHTVPVYIHRDIKSANILIDKNYRGKVADFGLTKLTEVGSSSLPTGRLVGTFGYMPPEYAQYGDVSPKVDVYAFGVVLYELISAKDAIVKTSESITDSKGLVALFEGVLSQPDPTEDLRKLVDQRLGDNYPVDSVRKMAQLAKACTQDNPQLRPSMRSIVVALMTLSSTTDDWDVGSFYENQNLVNLMSGR
complementation (nodulation) [2]: zero nodulation

B2: wild type Nfp gene: wild type Medicago NFP LysM receptor transgene used for hairy root complementation (protein, UniProt Q0GXS4 28-595, looked up)
Serine/threonine …: QPLYISETNFTCPVDSPPSCETYVAYRAQSPNFLSLSNISDIFNLSPLRIAKASNIEAEDKKLIPDQLLLVPVTCGCTKNHSFANITYSIKQGDNFFILSITSYQNLTNYLEFKNFNPNLSPTLLPLDTKVSVPLFCKCPSKNQLNKGIKYLITYVWQDNDNVTLVSSKFGASQVEMLAENNHNFTASTNRSVLIPVTSLPKLDQPSSNGRKSSSQNLALIIGISLGSAFFILVLTLSLVYVYCLKMKRLNRSTSSSETADKLLSGVSGYVSKPTMYEIDAIMEGTTNLSDNCKIGESVYKANIDGRVLAVKKIKKDASEELKILQKVNHGNLVKLMGVSSDNDGNCFLVYEYAENGSLEEWLFSESSKTSNSVVSLTWSQRITIAMDVAIGLQYMHEHTYPRIIHRDITTSNILLGSNFKAKIANFGMARTSTNSMMPKIDVFAFGVVLIELLTGKKAMTTKENGEVVILWKDFWKIFDLEGNREERLRKWMDPKLESFYPIDNALSLASLAVNCTADKSLSRPTIAEIVLCLSLLNQPSSEPMLERSLTSGLDAEATHVVTSVIAR
nodules per plant [3]: 10 nodules per plant

B3: double mutant construct (L147D/L154D): Medicago NFP with leucine residues L147 and L154 replaced with aspartate (hydrophobic patch mutant) (protein, UniProt Q0GXS4 28-595, looked up, variant L147D L154D)
Serine/threonine …: QPLYISETNFTCPVDSPPSCETYVAYRAQSPNFLSLSNISDIFNLSPLRIAKASNIEAEDKKLIPDQLLLVPVTCGCTKNHSFANITYSIKQGDNFFILSITSYQNLTNYLEFKNFNPNDSPTLLPDDTKVSVPLFCKCPSKNQLNKGIKYLITYVWQDNDNVTLVSSKFGASQVEMLAENNHNFTASTNRSVLIPVTSLPKLDQPSSNGRKSSSQNLALIIGISLGSAFFILVLTLSLVYVYCLKMKRLNRSTSSSETADKLLSGVSGYVSKPTMYEIDAIMEGTTNLSDNCKIGESVYKANIDGRVLAVKKIKKDASEELKILQKVNHGNLVKLMGVSSDNDGNCFLVYEYAENGSLEEWLFSESSKTSNSVVSLTWSQRITIAMDVAIGLQYMHEHTYPRIIHRDITTSNILLGSNFKAKIANFGMARTSTNSMMPKIDVFAFGVVLIELLTGKKAMTTKENGEVVILWKDFWKIFDLEGNREERLRKWMDPKLESFYPIDNALSLASLAVNCTADKSLSRPTIAEIVLCLSLLNQPSSEPMLERSLTSGLDAEATHVVTSVIAR
nodules per plant [3]: did not develop any nodules | complementation [4]: complements poorly
